Laboratory results reported in patent publication US8742117B2, “Oxime derivatives” (Cadila Healthcare Limited, priority 2008, dated 2014).

What was measured:
human GPR 119 receptor = molecular target: T1, human GPR 119 receptor (Homo sapiens, UniProt Q8TDV5); assay: cAMP assay in stable cell line expressing recombinant human GPR 119 receptor; assay type: cell-based; conditions: intracellular cAMP, recombinant human GPR 119 cell line
T1 construct: expressed in transfected cells
T1 sequence (Q8TDV5 1-335): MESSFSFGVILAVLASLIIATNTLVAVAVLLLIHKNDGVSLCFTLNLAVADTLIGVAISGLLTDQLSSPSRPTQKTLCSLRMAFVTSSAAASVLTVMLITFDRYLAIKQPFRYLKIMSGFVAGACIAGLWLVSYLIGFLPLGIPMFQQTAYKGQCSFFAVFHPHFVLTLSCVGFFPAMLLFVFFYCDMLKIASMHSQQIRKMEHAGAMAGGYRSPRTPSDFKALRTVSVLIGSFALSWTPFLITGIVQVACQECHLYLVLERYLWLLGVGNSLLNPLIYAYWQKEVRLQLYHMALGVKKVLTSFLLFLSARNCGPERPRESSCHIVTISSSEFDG
Excerpt: A stable cell line expressing recombinant human GPR 119 receptor was established and used to investigate the efficacy of the compounds of the invention based on the intracellular levels of cyclic AMP (cAMP) using commercially available cAMP kits. Compounds of the invention produced a concentration dependent increase in cAMP level and EC50 values of representative compounds were provided in table 1 and table 2 respectively.

Sprague Dawley rats = assay: Feed intake in Sprague Dawley rats; assay type: in vivo, rat; conditions: 25 mg/kg i.p., cumulative feed intake vs vehicle control
Excerpt: In Vivo Efficacy Studies: Feed Intake in Sprague Dawley Rats:
Sprague Dawley rats of 6-8 week age were be used for this experiment they were be kept for acclimatization in reversed light/dark cycle for 15 days. Animals will have free access to a standard chow diet and water during acclimatization period. After 15 days reversed light/dark cycle acclimatization animals were trained for fasting induced feed intake for 5 days till they show consistent feed intake. Grouping was done based on the monitored feed intake the training days. On treatment day each group of animals were dosed with test compound or vehicle by appropriate routes of administration (orally or intraperitoneally). Exactly 30 min. after treatment, measured amount of standard chow diet was provided and recorded as 0-min feed offered. Then subsequently 2, 4, 6 and 24 hour after 0-min, feed intake was measured and the cumulative feed intakes were calculated. The change in cumulative feed intake as compare to vehicle treated control at each time point was calculated for test compound and results were provided in table 2

SMILES | % activity at 1 μM (human GPR 119 receptor) [%] | also measured
Cc1c(ON=C(c2ccccc2)c2ccccc2)ncnc1N1CCC(c2nc(C(C)C)no2)CC1 [Example 20, Benzophenone O-6-(4-(3-isopropyl-1,2,4-oxadiazol-5-yl)piperidin-1-yl)-5-methylpyrimidin-4-yl oxime] | 24.55 | 
CC(=NOc1ncnc(N2CCC(c3nc(C(C)C)no3)CC2)c1C)c1ccc2c(c1)CCCC2 [Example 17, 1-(5,6,7,8-tetrahydronaphthalen-2-yl)ethanone O-6-(4-(3-isopropyl-1,2,4-oxadiazol-5-yl)piperidin-1-yl)-5-methylpyrimidin-4-yl oxime] | 29.24 | 
CC(=NOc1ncnc(N2CCC(c3nc(C(C)C)no3)CC2)c1C)c1ccc(OC(F)(F)F)cc1 [Example 16, 1-(4-(trifluoromethoxy)phenyl)ethanone O-6-(4-(3-isopropyl-1,2,4-oxadiazol-5-yl)piperidin-1-yl)-5-methylpyrimidin-4-yl oxime] | 78.54 | % reduction in food in take 2 hour (Sprague Dawley rats): 43%; % reduction in food in take 4 hour (Sprague Dawley rats): 25%; % reduction in food in take 6 hour (Sprague Dawley rats): 16%; % reduction in food in take 24 hour (Sprague Dawley rats): 4.5%
CC(=NOc1ncnc(N2CCC(c3nc(C(C)C)no3)CC2)c1C)c1ccc(-c2ccccc2)cc1 [Example 24, 1-(biphenyl-4-yl)ethanone O-6-(4-(3-isopropyl-1,2,4-oxadiazol-5-yl)piperidin-1-yl)-5-methylpyrimidin-4-yl oxime] | 8.7 | 
CC(=NOc1ncnc(N2CCC(c3nc(C(C)C)no3)CC2)c1C)c1cccnc1 [Example 12, 1-(pyridin-3-yl)ethanone O-6-(4-(3-isopropyl-1,2,4-oxadiazol-5-yl)piperidin-1-yl)-5-methylpyrimidin-4-yl oxime] | 20.32 | 
CC(C)c1noc(C2CCN(c3ncnc(ON=C(c4ccc(F)cc4)c4ccc(F)cc4)c3[N+](=O)[O-])CC2)n1 [Example 31, bis(4-fluorophenyl)methanone O-6-(4-(3-isopropyl-1,2,4-oxadiazol-5-yl)piperidin-1-yl)-5-nitropyrimidin-4-yl oxime] | 12.18 | 
CC(=NOc1ncnc(N2CCC(c3nc(C(C)C)no3)CC2)c1[N+](=O)[O-])c1ccc2ccccc2c1 [Example 23, 1-(naphthalen-2-yl)ethanone O-6-(4-(3-isopropyl-1,2,4-oxadiazol-5-yl)piperidin-1-yl)-5-nitropyrimidin-4-yl oxime] | 17.7 | % reduction in food in take 2 hour (Sprague Dawley rats): 38%; % reduction in food in take 4 hour (Sprague Dawley rats): 26%; % reduction in food in take 6 hour (Sprague Dawley rats): 26%; % reduction in food in take 24 hour (Sprague Dawley rats): 4%
CCCCC(=NOc1ncnc(N2CCC(c3nc(C(C)C)no3)CC2)c1[N+](=O)[O-])c1ccccc1 [Example 26, 1-phenylpentan-1-one O-6-(4-(3-isopropyl-1,2,4-oxadiazol-5-yl)piperidin-1-yl)-5-nitropyrimidin-4-yloxime] | 10.2 | 
CC(=NOc1ncnc(N2CCC(c3nc(C(C)C)no3)CC2)c1[N+](=O)[O-])c1ccc2c(c1)CCCC2 [Example 18, 1-(5,6,7,8-tetrahydronaphthalen-2-yl)ethanone O-6-(4-(3-isopropyl-1,2,4-oxadiazol-5-yl)piperidin-1-yl)-5-nitropyrimidin-4-yl oxime] | 31.37 | 
CC(C)c1noc(C2CCN(c3ncnc(ON=C(c4ccccc4)c4ccccc4)c3[N+](=O)[O-])CC2)n1 [Example 21, Benzophenone O-6-(4-(3-isopropyl-1,2,4-oxadiazol-5-yl)piperidin-1-yl)-5-nitropyrimidin-4-yl oxime] | 19.43 | 
CC(=NOc1ncnc(N2CCC(c3nc(C(C)C)no3)CC2)c1C)c1ccc(F)cc1 [Example 8, 1-(4-fluorophenyl)ethanone O-6-(4-(3-isopropyl-1,2,4-oxadiazol-5-yl)piperidin-1-yl)-5-methylpyrimidin-4-yl oxime] | 64.11 | % reduction in food in take 2 hour (Sprague Dawley rats): 32%; % reduction in food in take 4 hour (Sprague Dawley rats): 17%; % reduction in food in take 6 hour (Sprague Dawley rats): 12%; % reduction in food in take 24 hour (Sprague Dawley rats): 4%
CC(=NOc1ncnc(N2CCC(c3nc(C(C)C)no3)CC2)c1[N+](=O)[O-])c1ccccc1 [Example 33, Acetophenone O-6-(4-(3-isopropyl-1,2,4-oxadiazol-5-yl)piperidin-1-yl)-5-nitropyrimidin-4-yl oxime] | 59.34 | 
CC(=NOc1ncnc(N2CCC(c3nc(C(C)C)no3)CC2)c1C)c1ccc2c(c1)OCO2 [Example 5, 1-(benzo[d][1,3]dioxol-5-yl)ethanone O-6-(4-(3-isopropyl-1,2,4-oxadiazol-5-yl)piperidin-1-yl)-5-methylpyrimidin-4-yl oxime] | 58.37 | % reduction in food in take 2 hour (Sprague Dawley rats): 39%; % reduction in food in take 4 hour (Sprague Dawley rats): 40%; % reduction in food in take 6 hour (Sprague Dawley rats): 31%; % reduction in food in take 24 hour (Sprague Dawley rats): 8.2%
CC(=NOc1ncnc(N2CCC(c3nc(C(C)C)no3)CC2)c1[N+](=O)[O-])c1cccs1 [Example 28, 1-(thiophen-2-yl)ethanone O-6-(4-(3-isopropyl-1,2,4-oxadiazol-5-yl)piperidin-1-yl)-5-nitropyrimidin-4-yl oxime] | 33.4 | 
Cc1c(ON=C(c2ccc(F)cc2)c2ccc(F)cc2)ncnc1N1CCC(c2nc(C(C)C)no2)CC1 [Example 29, bis(4-fluorophenyl)methanone O-6-(4-(3-isopropyl-1,2,4-oxadiazol-5-yl)piperidin-1-yl)-5-methylpyrimidin-4-yl oxime] | 13.7 | 
CC(=NOc1ncnc(N2CCC(c3nc(C(C)C)no3)CC2)c1[N+](=O)[O-])c1ccc(OC(F)(F)F)cc1 [Example 13, 1-(4-(trifluoromethoxy)phenyl)ethanone O-6-(4-(3-isopropyl-1,2,4-oxadiazol-5-yl)piperidin-1-yl)-5-nitropyrimidin-4-yl oxime] | 93.76 | EC50 (human GPR 119 receptor): 0.242 µM
CC(=NOc1ncnc(N2CCC(c3nc(C(C)C)no3)CC2)c1C)c1ccc(S(C)(=O)=O)cc1 [Example 3, 1-(4-(methylsulfonyl)phenyl)ethanone O-6-(4-(3-isopropyl-1,2,4-oxadiazol-5-yl)piperidin-1-yl)-5-methylpyrimidin-4-yl oxime] | 73.40 | 
CCCCC(=NOc1ncnc(N2CCC(c3nc(C(C)C)no3)CC2)c1C)c1ccccc1 [Example 30, 1-phenylpentan-1-one O-6-(4-(3-isopropyl-1,2,4-oxadiazol-5-yl)piperidin-1-yl)-5-methylpyrimidin-4-yl oxime] | 24.65 | 
CC(=NOc1ncnc(N2CCC(c3nc(C(C)C)no3)CC2)c1[N+](=O)[O-])c1cc2ccccc2o1 [Example 1, 1-(benzofuran-2-yl)ethanone O-6-(4-(3-isopropyl-1,2,4-oxadiazol-5-yl)piperidin-1-yl)-5-nitropyrimidin-4-yl oxime] | 62.46 | EC50 (human GPR 119 receptor): 0.802 µM
CC(=NOc1ncnc(N2CCC(c3nc(C(C)C)no3)CC2)c1C)c1cc2ccccc2o1 [Example 19, 1-(benzofuran-2-yl)ethanone O-6-(4-(3-isopropyl-1,2,4-oxadiazol-5-yl)piperidin-1-yl)-5-methylpyrimidin-4-yl oxime] | 40.68 | 
CC(=NOc1ncnc(N2CCC(c3nc(C(C)C)no3)CC2)c1[N+](=O)[O-])c1ccc(-c2ccccc2)cc1 [Example 25, 1-(biphenyl-4-yl)ethanone O-6-(4-(3-isopropyl-1,2,4-oxadiazol-5-yl)piperidin-1-yl)-5-nitropyrimidin-4-yl oxime] | 32.0 | 
CC(=NOc1ncnc(N2CCC(c3nc(C(C)C)no3)CC2)c1[N+](=O)[O-])c1ccc(C)cc1 [Example 2, 1-p-tolylethanone O-6-(4-(3-isopropyl-1,2,4-oxadiazol-5-yl)piperidin-1-yl)-5-nitropyrimidin-4-yl oxime] | 37.75 | 
CC(=NOc1ncnc(N2CCC(c3nc(C(C)C)no3)CC2)c1C)c1ccccc1 [Example 32, Acetophenone O-6-(4-(3-isopropyl-1,2,4-oxadiazol-5-yl)piperidin-1-yl)-5-methylpyrimidin-4-yloxime] | 32.16 | 
